Results: article PMC12518639, “Apomorphine is a novel necroptosis inhibitor targeting mixed lineage kinase domain-like protein oligomerization” (Cell Death Discovery, 2025)

Legend:
Nt-hMLKL^F148A = target: T1, Nt-hMLKL^F148A (Homo sapiens, UniProt Q8NB16, F148A); assay: SPR binding to Nt-hMLKL F148A mutant; details: versus Nt-hMLKL
T1 construct: an N-terminal domain (Nt-hMLKL, amino acids 2–154, MW: 23 kDa) involved in oligomerization; His (N); made in house; host or cells: E. coli BL21
Text: (§1) The hMLKL plasmid (RC213152, OriGene, Rockville, MD, USA), and recombinant Wt-hMLKL (ab241453, Abcam) and Wt-mMLKL (MBS1379843, MyBioSource, San Diego, CA, USA) proteins were purchased. Nt-hMLKL (2–154), Nt-mMLKL (1–180), and Ct-hMLKL (183–471) were generated using the pBT7-N-His vector. Nt-hMLKL^C86A, Nt-hMLKL^F148A, -hMLKL^C86A/L89A/D94A, and Nt-hMLKL^R145A/R146A/F148A/M150A were generated using the Site-directed Mutagenesis Kit (EZ004S, Enzynomics, S. Korea). These constructs were subcloned into pBT7-N-His and pET-15b plasmid vectors. E. coli BL21 cells transformed with the cloned expression vectors were cultured in LB medium and supplemented with 100 μg/mL ampicillin until an OD at 600 nm of 0.5–0.6 was reached. The cultures were induced by 1 mM IPTG (367-93-1, Sigma-Aldrich). The cells were lysed and centrifuged. The clear supernatants were subjected to Ni-NTA affinity chromatography (175018169, QIAGEN, Hilden, Germany). Plasmids encoding mMLKL (1–464)–gyrase fusion constructs were kindly provided by Prof. […]
(§2) The interactions of Wt-hMLKL, Wt-mMLKL, Nt-mMLKL, Nt, and Ct-hMLKL proteins with Re-APO or Ox-APO were detected through SPR analysis using Biacore™ T200 (Cytiva, Marlborough, MA, USA). […] Sensorgrams were recorded and analyzed in real-time using the control software in the BIAcore T200 system. All data were analyzed using the BIA evaluation software (Cytiva).

Nt-hMLKL^C86A/L89A/D94A = target: T2, Nt-hMLKL^C86A/L89A/D94A (Homo sapiens, UniProt Q8NB16, C86A/D94A/L89A); assay: SPR binding to Nt-hMLKL triple mutant; details: CM5 chip
T2 construct: an N-terminal domain (Nt-hMLKL, amino acids 2–154, MW: 23 kDa) involved in oligomerization; His (N); made in house; host or cells: E. coli BL21
Text: as §1, §2

p-MLKL = assay: Western blot of phosphorylated MLKL in whole cell lysates; assay type: cell-based, human; details: 8 h
Method: To identify potential inhibitors of the necroptosis pathway targeting MLKL or the process of p-MLKL pore formation on the membrane, we screened a library of 2150 compounds, including FDA-approved drugs and those in phase 1–3 clinical trials, using THP-1-HMGB1-Lucia™ cells expressing the HMGB1-luciferase fusion protein. The cells were treated with a necroptosis-inducing mixture containing TNF-α, BV6, and Z-VAD-FMK (TBZ) in addition to the compound library (Fig. 1A). The supernatants were harvested to measure luciferase activities for necroptosis. The luciferase activities of cell supernatants treated with TBZ alone were considered as the maximum release (100%) of HMGB1-luciferase. NEC-1, a known RIP1 inhibitor used in both humans and mice, was used as a positive control. […] Next, we performed a propidium iodide (PI) uptake assay to exclude cytotoxic compounds using THP-1 cells. Then, we selected candidate molecules that were arbitrarily less than 30% of those treated with TBZ. […] Next, the inhibition levels of p-MLKL were tested to select MLKL-targeting molecules (Figs. 1C and S1A). Compounds that reduced p-MLKL levels to less than 30% of TBZ-treated controls were considered as potential inhibitors of MLKL phosphorylation. Conversely, compounds that maintained p-MLKL levels above 70% were selected because they are presumed to prevent the formation of pores in the plasma membrane by interfering with oligomerization.
The cells were harvested and lysed in 1× RIPA buffer (R4100-010, GenDEPOT, Katy, TX, USA) containing protease (P3100-001, GenDEPOT) and phosphatase (1862495, Thermo Fisher Scientific) inhibitors. WCLs were then centrifuged at 20,000×g for 30 min at 4 °C and subjected to non-reducing or reducing 8–12% SDS-PAGE gel electrophoresis. The membrane was blocked with 5% non-fat milk in TBS and probed with antibodies. Antibodies to hMLKL (14993S), mMLKL (97705S), phospho-hMLKL (Ser358) (91689S), phospho-mMLKL (Ser345) (37333S), phospho-hRIP1 (Ser166) (65746S), mRIP1 (3493S), phospho-mRIP1 (Ser321) (38662S), phospho-hRIP3 (Ser227) (93654), mRIP3 (95702S), p-mRIP3 (Thr231/Ser232) (91702S), and LDH (2012S) (Cell Signaling Technology, Danvers, MA, USA), and GAPDH (LF-PA0018, Abfrontier, S. Korea), hRIP1 (ab72139, Abcam, Cambridge, UK), hRIP3 (sc-135170, Santa Cruz Biotechnology, Dallas, TX, USA), HMGB1 (ab78923, Abcam), and LAMP1 (ab24170, Abcam) antibodies were used.
Fig. S1 Assessment of p-MLKL inhibition to identify MLKL-targeting molecules. (A) Quantification graph corresponding to Fig. 1C. […] Whole-cell lysates (WCLs) were collected and subjected to Western blot analysis under reducing conditions using antibodies against p-MLKL, MLKL, and GAPDH. The p-MLKL/MLKL ratio was quantified and compared to that of TBZ-treated cells. Data represent the mean of three independent experiments. (B) Quantification graph corresponding to Fig. 1D. […] Cytosolic and membrane fractions were collected and analyzed by Western blot under reducing conditions. The levels of p-MLKL and p-RIP1 were normalized to LDH (cytosolic marker) and LAMP1 (membrane marker), respectively. Quantified ratios were compared to those of TBZ-treated cells (n = 3 independent experiments).

T1 sequence (Q8NB16 2-154 F148A): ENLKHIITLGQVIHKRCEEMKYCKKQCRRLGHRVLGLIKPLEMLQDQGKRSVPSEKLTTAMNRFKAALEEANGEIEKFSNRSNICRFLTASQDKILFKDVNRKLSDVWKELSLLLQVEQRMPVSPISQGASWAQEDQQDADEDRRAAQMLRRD
T2 sequence (Q8NB16 2-154 C86A/L89A/D94A): as the sequence (Q8NB16 2-154 F148A) above, with C85A, L88A, D93A, A147F counted along it

Row | Structure (SMILES) | fold weaker binding of single mutant (Nt-hMLKL^F148A) | binding in SPR (Nt-hMLKL^C86A/L89A/D94A) | activity at 20 µM (p-MLKL; Homo sapiens, THP-1, TBZ and 20 μM compound, whole cell lysates, read-out: p-MLKL/MLKL ratio relative to TBZ-treated cells (% Value)) | effect on p-MLKL, p-RIP3 and p-RIP1 in whole cell lysates (p-MLKL; THP-1, TBZ, 20 μM)
1 | CN1CCc2cccc3c4c(cc1c23)C=CC(=O)C4=O [Ox-APO] | ~ 10 fold | no binding | – | –
2 | CN1CCc2cccc3c2[C@@H]1Cc1ccc(O)c(O)c1-3 [S62, (6aS)-6-methyl-5,6,6a,7-tetrahydro-4H-dibenzo[de,g]quinoline-10,11-diol] | – | – | 100% | little to no effect
